Laboratory results published in publication PMC5461540, “MOB1 Mediated Phospho-recognition in the Core Mammalian Hippo Pathway” (Molecular & Cellular Proteomics : MCP, 2017).
Numbering of substitutions follows the chain as printed. Where two headings read alike, the source gives them in different places. Where a SMILES comes first, the peptide text is derived from it.

Columns and labels:
MOB1A = target: T1, MOB1A (Homo sapiens, UniProt Q9H8S9); assay: Fluorescence polarization peptide binding assay, MOB1A wild-type; details: FP, 20 nM FITC labeled peptide, pH 7.5
T1 construct: MOB1A (2–216, NP_060691); 6xHis (N, cleaved yes); GST (N, cleaved yes); made in house; host or cells: E. coli BL21 (DE3) CodonPlus RIL
T1 sequence (Q9H8S9 2-216): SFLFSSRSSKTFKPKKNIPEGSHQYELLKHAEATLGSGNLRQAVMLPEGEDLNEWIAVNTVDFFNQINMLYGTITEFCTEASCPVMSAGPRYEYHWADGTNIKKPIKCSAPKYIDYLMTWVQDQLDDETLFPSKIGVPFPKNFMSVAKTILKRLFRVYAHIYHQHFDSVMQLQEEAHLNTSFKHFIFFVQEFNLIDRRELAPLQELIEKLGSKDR
Text: (§1) Human MST1 kinase domain (amino acids 2–326, corresponding to NCBI RefSeq protein NP_006273), MST2 kinase domain (2–322, NP_006272), MOB1B (2–216, NP_001231695), MOB1A (2–216, NP_060691) wild-type and indicated MOB1A mutant proteins, MOB2 (2–237, NP_001165694), MOB3A (2–217, NP_570719), MOB3B (2–216, NP_079037), MOB3C (2–216, NP_660322), MOB4 (2–225, NP_056202), MOB4^RRR→AAA (2–225), and yeast Mob1 (79–314, NP_012160) were expressed in E. coli BL21 (DE3) CodonPlus RIL cells as N-terminal dual 6xhistidine (HIS) and glutathione S-transferase (GST), Tobacco Etch Virus (TEV) cleavable, fusion proteins using a modified pETM-30 vector. MOB wild-type and mutants were purified in batch on glutathione-Sepharose resin (GE Healthcare, Uppsala, Sweden) and eluted by cleavage from the affinity tags with HIS tagged TEV protease. TEV protease was removed from the eluted protein by subtractive immobilized-metal affinity chromatography. Cleaved protein was then concentrated and buffer exchanged by size exclusion chromatography (SEC) using a Superdex 75 120 ml column (GE Healthcare). For GST pull-downs and Far-Western analysis, the TEV cleavage step was omitted.
MST1 phosphopeptides encompassing pT353 and pT367 (15-mers) used for crystallization and FITC labeled nonphosphorylated and phosphorylated MST1 T353 peptides, T367 peptides, T329-T340 peptides, T380-T387 peptides and optimized Nud1-like peptides for fluorescence polarization binding experiments were purchased from Biomatik (Cambridge, ON). Peptide sequences used for crystallization studies are: T353, […](p)TMIEH and T367, […](p)TMVINA. All peptides used for biophysical studies are listed in supplemental Table S1.
Twelve-point fluorescence polarization binding measurements were performed in triplicate in 384-well plate format using an Analyst HT (Artisan-Scientific, Sunnyvale, CA) reader. Each 20 μl measurement condition contained 20 nM FITC labeled MST1 peptide or Nud1-like peptide and the indicated concentration of MOB proteins in 25 mM HEPES pH 7.5, 150 mM NaCl, 2 mM DTT, and 1 mg/ml bovine serum albumin (BSA). Kd values were obtained by fitting the results to a one site-specific binding model using GraphPad Prism.

MOB1A KRR→3A mutant = target: T2, MOB1A KRR→3A mutant (Homo sapiens, UniProt Q9H8S9, K153A/R154A/R157A); assay: Fluorescence polarization peptide binding assay, MOB1A KRR→3A mutant (K153, R154, R157 to alanine); details: Fig. 2B, MOB1A KRR→3A (K153, R154, R157 to alanine); FP, 20 nM FITC labeled peptide, pH 7.5; n = 3; N.D. = Kd could not be determined
T2 construct: MOB1A (2–216, NP_060691) wild-type and indicated MOB1A mutant proteins; 6xHis (N, cleaved yes); GST (N, cleaved yes); made in house; host or cells: E. coli BL21 (DE3) CodonPlus RIL
T2 sequence (Q9H8S9 2-216 K153A/R154A/R157A): T1 sequence (Q9H8S9 2-216) with K152A, R153A, R156A
Text: as §1, with “TEV protease was removed from the eluted protein by subtractive immobilized-metal affinity chromatography. Cleaved protein was then concentrated and buffer exchanged by size exclusion chromatography (SEC) using a Superdex 75 120 ml column (GE Healthcare). For GST pull-downs and Far-Western analysis, the TEV cleavage step was omitted.” left out
(§2) MST1 phosphopeptides encompassing pT353 and pT367 (15-mers) used for crystallization and FITC labeled nonphosphorylated and phosphorylated MST1 T353 peptides, T367 peptides, T329-T340 peptides, T380-T387 peptides and optimized Nud1-like peptides for fluorescence polarization binding experiments were purchased from Biomatik (Cambridge, ON). […]
(§3) Twelve-point fluorescence polarization binding measurements were performed in triplicate in 384-well plate format using an Analyst HT (Artisan-Scientific, Sunnyvale, CA) reader. […]

MOB3A = target: T3, MOB3A (Homo sapiens, UniProt Q96BX8); assay: Fluorescence polarization peptide binding assay, MOB3A; details: Fig. 5A, FP, 20 nM FITC labeled peptide, pH 7.5, mean ± S.E. (n = 3), read-out: Kd, μM (to MST1 pT367 peptide)
T3 construct: MOB3A (2–217, NP_570719); 6xHis (N, cleaved yes); GST (N, cleaved yes); made in house; host or cells: E. coli BL21 (DE3) CodonPlus RIL
T3 sequence (Q96BX8 2-217): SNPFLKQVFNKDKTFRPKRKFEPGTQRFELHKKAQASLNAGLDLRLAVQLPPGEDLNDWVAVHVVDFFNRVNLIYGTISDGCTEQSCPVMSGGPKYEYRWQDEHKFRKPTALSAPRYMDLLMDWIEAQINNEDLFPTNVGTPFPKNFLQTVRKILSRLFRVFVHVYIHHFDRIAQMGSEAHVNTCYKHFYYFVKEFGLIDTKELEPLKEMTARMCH
Text: as §1, with “TEV protease was removed from the eluted protein by subtractive immobilized-metal affinity chromatography. Cleaved protein was then concentrated and buffer exchanged by size exclusion chromatography (SEC) using a Superdex 75 120 ml column (GE Healthcare). For GST pull-downs and Far-Western analysis, the TEV cleavage step was omitted.” left out
as §2, §3

MOB3B = target: T4, MOB3B (Homo sapiens, UniProt Q86TA1); assay: Fluorescence polarization peptide binding assay, MOB3B; details: Fig. 5A, FP, 20 nM FITC labeled peptide, pH 7.5, mean ± S.E. (n = 3), read-out: Kd, μM (to MST1 pT367 peptide)
T4 construct: MOB3B (2–216, NP_079037); 6xHis (N, cleaved yes); GST (N, cleaved yes); made in house; host or cells: E. coli BL21 (DE3) CodonPlus RIL
T4 sequence (Q86TA1 2-216): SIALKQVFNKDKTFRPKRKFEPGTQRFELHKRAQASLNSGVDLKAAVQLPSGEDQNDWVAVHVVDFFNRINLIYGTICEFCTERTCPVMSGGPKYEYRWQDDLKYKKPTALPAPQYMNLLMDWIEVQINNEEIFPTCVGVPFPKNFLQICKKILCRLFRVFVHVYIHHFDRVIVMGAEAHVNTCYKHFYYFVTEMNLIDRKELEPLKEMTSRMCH
Text: as §1, with “TEV protease was removed from the eluted protein by subtractive immobilized-metal affinity chromatography. Cleaved protein was then concentrated and buffer exchanged by size exclusion chromatography (SEC) using a Superdex 75 120 ml column (GE Healthcare). For GST pull-downs and Far-Western analysis, the TEV cleavage step was omitted.” left out
as §2, §3

MOB3C = target: T5, MOB3C (Homo sapiens, UniProt Q70IA8); assay: Fluorescence polarization peptide binding assay, MOB3C; details: Fig. 5A, FP, 20 nM FITC labeled peptide, pH 7.5, mean ± S.E. (n = 3), read-out: Kd, μM (to MST1 pT367 peptide)
T5 construct: MOB3C (2–216, NP_660322); 6xHis (N, cleaved yes); GST (N, cleaved yes); made in house; host or cells: E. coli BL21 (DE3) CodonPlus RIL
T5 sequence (Q70IA8 2-216): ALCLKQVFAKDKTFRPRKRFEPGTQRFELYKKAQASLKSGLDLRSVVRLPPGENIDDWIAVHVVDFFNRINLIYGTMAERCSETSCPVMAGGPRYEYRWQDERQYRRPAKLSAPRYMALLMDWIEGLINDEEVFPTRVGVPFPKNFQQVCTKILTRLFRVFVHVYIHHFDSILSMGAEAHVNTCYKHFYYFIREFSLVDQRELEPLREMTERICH
Text: as §1, with “TEV protease was removed from the eluted protein by subtractive immobilized-metal affinity chromatography. Cleaved protein was then concentrated and buffer exchanged by size exclusion chromatography (SEC) using a Superdex 75 120 ml column (GE Healthcare). For GST pull-downs and Far-Western analysis, the TEV cleavage step was omitted.” left out
as §2, §3

MOB4 = target: T6, MOB4 (Homo sapiens, UniProt Q9Y3A3); assay: Fluorescence polarization peptide binding assay, MOB4; details: Fig. 5A, FP, 20 nM FITC labeled peptide, pH 7.5, mean ± S.E. (n = 3), read-out: Kd, μM (to MST1 pT367 peptide)
T6 construct: MOB4 (2–225, NP_056202); 6xHis (N, cleaved yes); GST (N, cleaved yes); made in house; host or cells: E. coli BL21 (DE3) CodonPlus RIL
T6 sequence (Q9Y3A3 2-225): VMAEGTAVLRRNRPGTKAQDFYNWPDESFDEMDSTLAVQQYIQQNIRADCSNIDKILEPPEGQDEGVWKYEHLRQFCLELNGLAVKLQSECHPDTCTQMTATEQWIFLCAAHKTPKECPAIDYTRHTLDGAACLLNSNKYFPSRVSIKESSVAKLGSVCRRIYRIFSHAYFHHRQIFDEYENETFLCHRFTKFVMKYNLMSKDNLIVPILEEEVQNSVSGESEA
Text: as §1, with “TEV protease was removed from the eluted protein by subtractive immobilized-metal affinity chromatography. Cleaved protein was then concentrated and buffer exchanged by size exclusion chromatography (SEC) using a Superdex 75 120 ml column (GE Healthcare). For GST pull-downs and Far-Western analysis, the TEV cleavage step was omitted.” left out
as §2, §3

Kd (MOB1A; recombinant wild-type MOB1A, read-out: Kd): 0.68 µM
Kd (MOB1A; Fig. 5A, MOB1A, mean ± S.E. (n = 3), read-out: Kd, μM (to MST1 pT367 peptide)): 0.67 ± 0.09 µM
Kd (MOB1A KRR→3A mutant): no measurable binding
Kd (MOB3A): 2 to 3 µM
Kd (MOB3B): 2 to 3 µM
Kd (MOB3C): 2 to 3 µM
Kd (MOB4): 12.2 µM
Compound: CC[C@H](C)[C@H](NC(=O)[C@@H](NC(=O)[C@H](CCSC)NC(=O)[C@@H](NC(=O)CNC(=O)[C@H](CC(C)C)NC(=O)[C@H](CCC(N)=O)NC(=O)[C@H](CO)NC(=O)[C@@H]1CCCN1C(=O)[C@H](CC(C)C)NC(=O)[C@@H](NC(=O)[C@H](CC(=O)O)NC(=O)[C@@H](N)CC(=O)O)[C@@H](C)O)[C@@H](C)OP(=O)(O)O)C(C)C)C(=O)N[C@@H](CC(N)=O)C(=O)N[C@@H](C)C(=O)O [pT367] (HELM PEPTIDE1{D.D.T.L.P.S.Q.L.G.[C[C@@H](OP(=O)(O)O)[C@H](N[*:1])C(=O)[*:2]].M.V.I.N.A}$$$$V2.0)
